Where two headings read alike, the source gives them in different places.
Experiments:
[1] = test system: unfolded protein response (UPR); assay: Other UPR branches: XBP1 splicing, ATF6 cleavage, UPR target genes; format: cell-based
Experimental: Total RNA was reverse transcribed using random hexamers and assayed by qRT-PCR as previously described (see, Grivennikov S I, Greten F R, & Karin M (2010) Immunity, inflammation, and cancer. Cell 140(6):883-899).
In asking how atovaquone induces REDD1, a possible role for ATF4, which regulates REDD1 expression was considered. ATF4 is regulated mainly at the level of translation and is induced upon phosphorylation of eIF2α. […] K562 and AML2 cells, which lack STAT3 activation, were treated with rapamycin for 72 hours. […] For these reasons, it was hypothesized that atovaquone induces eIF2α phosphorylation, with a resulting increase in ATF4 protein and signaling. U266, K562, and SKBR3 cells were treated with atovaquone (20, 20, 25 μM respectively). […] The phospho-eIF2α/ATF4 pathway represents one branch of the UPR, whose other branches consist of ATF6 cleavage and IRE1-mediated XBP1 splicing. […] Thus, atovaquone selectively activates the phospho-eIF2α/ATF4 branch of the UPR. […] Consequently, atovaquone inhibition of STAT3 is not secondary to UPR activation.

[2] = test system: malignant hematological cell lines that lack STAT3 activation; assay: Cell viability of hematologic cancer cells lacking STAT3 activation; format: cell-based; settings: 72 hours
Experimental: Western blotting was performed as previously described (Battle T E, Arbiser J, & Frank D A (2005) The natural product honokiol induces caspase dependent apoptosis in B-cell chronic lymphocytic leukemia (B-CLL) cells. Blood 106(2):690-697). Antibodies to phospho-MAPK (9101), total MAPK (9102), phospho-Y705 STAT3 (9131), phospho-S6 (2215), total S6 (2217), phospho-4E-BP1 (9451), total 4E-BP1 (9644), total RSK (9355), phospho-S6K (9234, 85 used at 1:5000), total S6K (2708), phospho-eIF2α (9721, used at 1:1000), total eIF2α (5324), ATF4 (11815, used at 1:1000), PDGFRβ (3169), IGF1Rβ (9750), EGFR (2232), and HER2 (2242) were from Cell Signaling Technology. Phospho-RSK antibody was from R&D (AF889). Antibodies to total STAT3 (sc-482) and gp130 (sc-656, used at 1:1000) were from Santa Cruz Biotechnology. Phospho-S727 STAT3 antibody was described previously (229). REDD1 antibody was from Proteintech (10638-1-AP, used at 1:1000). Antibody recognizing full-length and cleaved ATF6 was from Abcam (ab122897, used at 1:1000). Antibodies to tubulin (T5168) and beta actin (A5316) were from Sigma. All antibodies were used at 1:10000 dilution for western blot unless otherwise noted. […] Cell viability was measured as ATP-dependent luminescence by Cell Titer Glo (Promega). […]

[3] = cited from earlier work
STAT5 = STAT5 cell-based luciferase reporter system
Experimental: To determine if atovaquone inhibits STAT3, it was tested in a cell-based reporter system of STAT3 transcriptional activity (Nelson E A, et al. (2008) Nifuroxazide inhibits survival of multiple myeloma cells by directly inhibiting STAT3. Blood 112(13):5095-5102). These cells lack basal STAT3 activation; upon IL-6 treatment, STAT3 becomes activated and drives transcription of a STAT3-dependent luciferase reporter gene. The STAT3-luc reporter cells were pre-treated with drug for 1 hour, then stimulated with IL-6 (10 ng/ml) for 5 hr. Activity of firefly luciferase was measured and normalized by cell viability (Cell Titer Glo). […] To determine if atovaquone inhibits STAT3 activity specifically over other transcription factors, it was tested in cell-based reporter systems for STAT1 and STAT5, two other STAT family members, and NF-κB, an unrelated transcription factor.

O=C1C(O)=C([C@H]2CC[C@H](c3ccc(Cl)cc3)CC2)C(=O)c2ccccc21 [atovaquone, trans-2-[4-(4-chlorophenyl)cyclohexyl]-3-hydroxy-1,4-naphthalenedione]
levels of BiP [1]: no effect on levels of BiP | ATF6 cleavage ([1]; SKBR3, K562, U266, 25, 20, 20 μM): did not induce | spliced XBP1 ([1]; U266, K562, SKBR3, 20, 20, 25 μM, 6 hours): did not induce spliced XBP1 | UPR target gene expression ([1]; U266, K562, SKBR3, 6 hours, in contrast to tunicamycin and thapsigargin): did not induce any UPR target genes other than those downstream of ATF4 | viability of malignant hematological cell lines that lack STAT3 activation [2]: reduced the viability | plasma concentrations achieved in patients ([3]; patients taking standard doses): 40 to 80 µM | plasma concentrations achieved in patients ([3]; patients): 15000 to 30000 ng/mL | STAT5 transcription factor activity (STAT5): modestly affected at the higher doses

— US10130590B2, “Methods of treating cancer with atovaquone-related compounds” (DANA-FARBER CANCER INSTITUTE, INC., priority 2013, dated 2018)
